Patent publication US10681909B2, “Herbicidal triazoles” (FMC Corporation, priority 2014, dated 2020)

Experiments:
ryegrass, Italian = experiment: Test C preemergence; format: in vivo, Lolium multiflorum; conditions: for Ryegrass, Italian plant response rating (0 to 100): Preemergence, visual rating after 13 to 15 d; for Plant response rating (scale of 0 to 100 where 0 is no effect and 100 is complete control): Ryegrass, Italian, preemergence
Source text: (§1) Seeds of plant species selected from blackgrass (Alopecurus myosuroides), ryegrass, Italian (Italian ryegrass, Lolium multiflorum), wheat (winter wheat, Triticum aestivum), galium (catchweed bedstraw, Galium aparine), corn (Zea mays), crabgrass, large (large crabgrass, Digitaria sanguinalis), foxtail, giant, (giant foxtail, Setaria faberii), johnsongrass (Sorghum halepense), lambsquarters (Chenopodium album), morningglory (Ipomoea coccinea), nutsedge, yellow (yellow nutsedge, Cyperus esculentus), pigweed (Amaranthus retroflexus), ragweed (common ragweed, Ambrosia elatior), soybean (Glycine max), barnyardgrass (Echinochloa crus-galli), oilseed rape (Brassica napus), waterhemp (common waterhemp, Amaranthus rudis), and velvetleaf (Abutilon theophrasti) were planted into a blend of loam soil and sand and treated preemergence with test chemicals formulated in a non-phytotoxic solvent mixture which included a surfactant. At the same time, plants selected from these crop and weed species and also chickweed (common chickweed, Stellaria media), oat, wild (wild oat, Avena fatua), and kochia (Kochia scoparia), were planted in pots containing Sunshine Redi-Earth® planting medium comprising spaghnum peat moss, vermiculite, starter nutrients and dolomitic limestone and treated with postemergence applications of test chemicals formulated in the same manner. Plants ranged in height from 2 to 18 cm (1- to 4-leaf stage) for postemergence treatments. […] A dash (-) response means no test result.

ragweed = experiment: Test C preemergence; format: in vivo, Ambrosia elatior; conditions: for Ragweed plant response rating (0 to 100): Preemergence, visual rating after 13 to 15 d; for Plant response rating (scale of 0 to 100 where 0 is no effect and 100 is complete control): Ragweed, preemergence
Source text: as §1

velvetleaf = experiment: Test C preemergence; format: in vivo, Abutilon theophrasti; conditions: for Velvetleaf plant response rating (0 to 100): Preemergence, visual rating after 13 to 15 d
Source text: as §1

chickweed [1] = experiment: Test D preemergence; format: in vivo, Stellaria media; conditions: for Plant response rating (0 to 100), Chickweed: 16 g ai/ha, 0 is no effect, 100 is complete control; for Plant response rating: Chickweed: scale 0 to 100
Source text: (§2) Seeds of plant species selected from bluegrass (annual bluegrass, Poa annua), blackgrass (Alopecurus myosuroides), canarygrass (Phalaris minor), chickweed (common chickweed, Stellaria media), galium (catchweed bedstraw, Galium aparine), bromegrass, down (downy bromegrass, Bromus tectorum), Russian thistle (Salsola kali), field poppy (Papaver rhoeas), field violet (Viola arvensis), foxtail, green (green foxtail, Setaria viridis), deadnettle (henbit deadnettle, Lamium amplexicaule), ryegrass, Ital. (Italian ryegrass, Lolium multiflorum), kochia (Kochia scoparia), lambsquarters (Chenopodium album), oilseed rape (Brassica napus), pigweed (Amaranthus retroflexus), chamomile (scentless chamomile, Matricaria inodora), speedwell (bird's-eye speedwell, Veronica persica), barley, spring (spring barley, Hordeum vulgare), wheat, spring (spring wheat, Triticum aestivum), buckwheat, wild (wild buckwheat, Polygonum convolvulus), wild mustard (Sinapis arvensis), oat, wild (wild oat, Avena fatua), radish, wild (wild radish, Raphanus raphanistrum), […]), barley, winter (winter barley, Hordeum vulgare), and wheat, winter (winter wheat, Triticum aestivum) were planted into a silt loam soil and treated preemergence with test chemicals formulated in a non-phytotoxic solvent mixture which included a surfactant. At the same time, these species were planted in pots containing Sunshine Redi-Earth® planting medium comprising spaghnum peat moss, vermiculite, starter nutrients and dolomitic limestone and treated with postemergence applications of the test chemicals formulated in the same manner. Plants ranged in height from 2 to 18 cm (1- to 4-leaf stage). Treated plants and controls were maintained in a controlled growth environment for 14 to 21 d after which time all species were compared to controls and visually evaluated. […] A dash (-) response means no test result.

Russian thistle = experiment: Test D preemergence; format: in vivo, Salsola kali; conditions: for Plant response rating (0 to 100), Russian Thistle: 16 g ai/ha, 0 is no effect, 100 is complete control; for Plant response rating: Russian Thistle: scale 0 to 100
Source text: as §2

deadnettle = experiment: Test D preemergence; format: in vivo, Lamium amplexicaule; conditions: for Plant response rating (0 to 100), Deadnettle: 16 g ai/ha, 0 is no effect, 100 is complete control; for Plant response rating: Deadnettle: scale 0 to 100
Source text: as §2

ryegrass, Ital. = experiment: Test D preemergence; format: in vivo, Lolium multiflorum; conditions: for Plant response rating (0 to 100), Ryegrass, Ital.: 16 g ai/ha, 0 is no effect, 100 is complete control; for Plant response rating: Ryegrass, Ital.: scale 0 to 100
Source text: as §2

barley, spring = experiment: Test D preemergence; format: in vivo, Hordeum vulgare; conditions: for Plant response rating (0 to 100), Barley, Spring: 16 g ai/ha, 0 is no effect, 100 is complete control; for Plant response rating: Barley, Spring: scale 0 to 100
Source text: as §2

barley, winter = experiment: Test D preemergence; format: in vivo, Hordeum vulgare; conditions: for Plant response rating (0 to 100), Barley, Winter: 16 g ai/ha, 0 is no effect, 100 is complete control; for Plant response rating: Barley, Winter: scale 0 to 100
Source text: as §2

blackgrass = experiment: Test D postemergence; format: in vivo, Alopecurus myosuroides; conditions: scale 0 to 100
Source text: as §2

chickweed [2] = experiment: Test D postemergence; format: in vivo, Stellaria media; conditions: scale 0 to 100
Source text: as §2

lambsquarters = experiment: Test D postemergence; format: in vivo, Chenopodium album; conditions: scale 0 to 100
Source text: as §2

oat, wild = experiment: Test D postemergence; format: in vivo, Avena fatua; conditions: scale 0 to 100
Source text: as §2

FC(F)(F)COc1nc(-c2ccccc2)nn1Cc1ccnc(C(F)(F)F)c1 [Compound 24]
Ryegrass, Italian plant response rating (0 to 100) (ryegrass, Italian; 31 g ai/ha): 5
Ryegrass, Italian plant response rating (0 to 100) (ryegrass, Italian; 62 g ai/ha): 15
Plant response rating (scale of 0 to 100 where 0 is no effect and 100 is complete control) (ryegrass, Italian; 125 g ai/ha): 85
Plant response rating (scale of 0 to 100 where 0 is no effect and 100 is complete control) (ryegrass, Italian; 250 g ai/ha): 90
Ragweed plant response rating (0 to 100) (ragweed; 31 g ai/ha): 5
Ragweed plant response rating (0 to 100) (ragweed; 62 g ai/ha): 25
Plant response rating (scale of 0 to 100 where 0 is no effect and 100 is complete control) (ragweed; 125 g ai/ha): 25
Plant response rating (scale of 0 to 100 where 0 is no effect and 100 is complete control) (ragweed; 250 g ai/ha): 55
Velvetleaf plant response rating (0 to 100) (velvetleaf; 31 g ai/ha): 30
Velvetleaf plant response rating (0 to 100) (velvetleaf; 62 g ai/ha): 45
Plant response rating (scale of 0 to 100 where 0 is no effect and 100 is complete control) (velvetleaf; Velvetleaf, preemergence, 250 g ai/ha): 60
Plant response rating (0 to 100), Chickweed (chickweed [1]): 55
Plant response rating: Chickweed (chickweed [1]; 31 g ai/ha): 60
Plant response rating: Chickweed (chickweed [1]; 62 g ai/ha): 70
Plant response rating: Chickweed (chickweed [1]; 125 g ai/ha): 90
Plant response rating (0 to 100), Russian Thistle (Russian thistle): 65
Plant response rating: Russian Thistle (Russian thistle; 62 g ai/ha): 85
Plant response rating: Russian Thistle (Russian thistle; 125 g ai/ha): 85
Plant response rating (0 to 100), Deadnettle (deadnettle): 30
Plant response rating: Deadnettle (deadnettle; 31 g ai/ha): 80
Plant response rating: Deadnettle (deadnettle; 62 g ai/ha): 85
Plant response rating: Deadnettle (deadnettle; 125 g ai/ha): 100
Plant response rating (0 to 100), Ryegrass, Ital. (ryegrass, Ital.): 40
Plant response rating: Ryegrass, Ital. (ryegrass, Ital.; 62 g ai/ha): 40
Plant response rating: Ryegrass, Ital. (ryegrass, Ital.; 125 g ai/ha): 45
Plant response rating (0 to 100), Barley, Spring (barley, spring): 20
Plant response rating: Barley, Spring (barley, spring; 31 g ai/ha): 25
Plant response rating: Barley, Spring (barley, spring; 62 g ai/ha): 30
Plant response rating: Barley, Spring (barley, spring; 125 g ai/ha): 35
Plant response rating (0 to 100), Barley, Winter (barley, winter): 15
Plant response rating: Barley, Winter (barley, winter; 31 g ai/ha): 15
Plant response rating: Barley, Winter (barley, winter; 62 g ai/ha): 25
Plant response rating: Barley, Winter (barley, winter; 125 g ai/ha): 25
Plant response rating: Blackgrass (blackgrass; 16 g ai/ha): 25
Plant response rating: Blackgrass (blackgrass; 31 g ai/ha): 35
Plant response rating: Blackgrass (blackgrass; 62 g ai/ha): 45
Plant response rating: Blackgrass (blackgrass; 125 g ai/ha): 65
Plant response rating: Chickweed (chickweed [2]; 16 g ai/ha): 55
Plant response rating: Chickweed (chickweed [2]; 31 g ai/ha): 60
Plant response rating: Chickweed (chickweed [2]; 62 g ai/ha): 70
Plant response rating: Chickweed (chickweed [2]; 125 g ai/ha): 90
Plant response rating: Lambsquarters (lambsquarters; 16 g ai/ha): 65
Plant response rating: Lambsquarters (lambsquarters; 31 g ai/ha): 75
Plant response rating: Lambsquarters (lambsquarters; 62 g ai/ha): 80
Plant response rating: Lambsquarters (lambsquarters; 125 g ai/ha): 85
Plant response rating: Oat, Wild (oat, wild; 16 g ai/ha): 35
Plant response rating: Oat, Wild (oat, wild; 31 g ai/ha): 45
Plant response rating: Oat, Wild (oat, wild; 62 g ai/ha): 50
Plant response rating: Oat, Wild (oat, wild; 125 g ai/ha): 55

COc1nc(-c2ccc(Cl)cc2)nn1Cc1ccnc(C(F)(F)F)c1 [Compound 28]
Plant response rating (0 to 100), Chickweed (chickweed [1]): 65
Plant response rating: Chickweed (chickweed [1]; 31 g ai/ha): 70
Plant response rating: Chickweed (chickweed [1]; 62 g ai/ha): 70
Plant response rating: Chickweed (chickweed [1]; 125 g ai/ha): 90
Plant response rating (0 to 100), Russian Thistle (Russian thistle): 70
Plant response rating: Russian Thistle (Russian thistle; 62 g ai/ha): 85
Plant response rating: Russian Thistle (Russian thistle; 125 g ai/ha): 85
Plant response rating (0 to 100), Deadnettle (deadnettle): 20
Plant response rating: Deadnettle (deadnettle; 31 g ai/ha): 75
Plant response rating: Deadnettle (deadnettle; 62 g ai/ha): 95
Plant response rating: Deadnettle (deadnettle; 125 g ai/ha): 100
Plant response rating (0 to 100), Ryegrass, Ital. (ryegrass, Ital.): 25
Plant response rating: Ryegrass, Ital. (ryegrass, Ital.; 62 g ai/ha): 25
Plant response rating: Ryegrass, Ital. (ryegrass, Ital.; 125 g ai/ha): 55
Plant response rating (0 to 100), Barley, Spring (barley, spring): 15
Plant response rating: Barley, Spring (barley, spring; 31 g ai/ha): 20
Plant response rating: Barley, Spring (barley, spring; 62 g ai/ha): 20
Plant response rating: Barley, Spring (barley, spring; 125 g ai/ha): 25
Plant response rating (0 to 100), Barley, Winter (barley, winter): 10
Plant response rating: Barley, Winter (barley, winter; 31 g ai/ha): 15
Plant response rating: Barley, Winter (barley, winter; 62 g ai/ha): 20
Plant response rating: Barley, Winter (barley, winter; 125 g ai/ha): 25
Plant response rating: Blackgrass (blackgrass; 16 g ai/ha): 25
Plant response rating: Blackgrass (blackgrass; 31 g ai/ha): 35
Plant response rating: Blackgrass (blackgrass; 62 g ai/ha): 55
Plant response rating: Blackgrass (blackgrass; 125 g ai/ha): 60
Plant response rating: Chickweed (chickweed [2]; 16 g ai/ha): 65
Plant response rating: Chickweed (chickweed [2]; 31 g ai/ha): 70
Plant response rating: Chickweed (chickweed [2]; 62 g ai/ha): 70
Plant response rating: Chickweed (chickweed [2]; 125 g ai/ha): 90
Plant response rating: Lambsquarters (lambsquarters; 16 g ai/ha): 75
Plant response rating: Lambsquarters (lambsquarters; 31 g ai/ha): 90
Plant response rating: Lambsquarters (lambsquarters; 62 g ai/ha): 85
Plant response rating: Lambsquarters (lambsquarters; 125 g ai/ha): 95
Plant response rating: Oat, Wild (oat, wild; 16 g ai/ha): 30
Plant response rating: Oat, Wild (oat, wild; 31 g ai/ha): 40
Plant response rating: Oat, Wild (oat, wild; 62 g ai/ha): 45
Plant response rating: Oat, Wild (oat, wild; 125 g ai/ha): 50
